What was measured:
Assay type in all cases: cell-based
[1] = system: NOTCH2; test: RNA-seq of NOTCH2 expression in compound-treated primary human hepatocytes; details: for NOTCH2 Fold Change (Log2): primary human hepatocytes; for Significant modulation of NOTCH2 (in words): summary of Table 6
Protocol: (§1) Human hepatocytes were obtained from two donors from Massachusetts General Hospital, namely MGH54 and MGH63, and one donor from Lonza, namely HUM4111B. Cryopreserved hepatocytes were cultured in plating media for 16 hours, transferred to maintenance media for 4 hours. Cultured on serum-free media for 2 hours, then a compound was added. The hepatocytes were maintained on the serum-free media for 16 hours prior to gene expression analysis. Primary human hepatocytes were stored in the vapor phase of a liquid nitrogen freezer (about -130° C.). Human hepatocytes cultured as described above were plated in 24-well format, adding 375,000 cells per well in a volume of 500 ul plating medium. Four hours before treatment, cells were washed with PBS and the medium was changed to either: fresh maintenance medium (complete) or modified maintenance medium. Compound stocks were prepared at 1000× final concentration and added in a 2-step dilution to the medium to reduce risk of a compound precipitating out of solution when added to the cells, and to ensure reasonable pipetting volumes. […] The plate was mixed by carefully swirling and after all wells were treated and returned to the incubator overnight. If desired, separate plates/wells were treated with vehicle-only controls and/or positive controls. If using multi-well plates, controls were included on each plate. After about 18 hours, cells were harvested for further analysis, e.g., ChIP-seq, RNA-seq, ATAC-seq, etc. This protocol is a modified version of the following protocols: MagMAX mirVana Total RNA Isolation Kit User Guide (Applied Biosystems #MAN0011131 Rev B.0), NEBNext Poly(A) mRNA Magnetic Isolation Module ([…]), and NEBNext Ultra Directional RNA Library Prep Kit for Illumina ([…]) (New England Biosystems #E74901). […] Two hundred μl of Lysis Binding Mix was used per well of the multiwell plate containing adherent cells (usually a 24-well plate). For mRNA isolation and library prep, the NEBNext Poly(A) mRNA Magnetic Isolation Module and Directional Prep kit was used. RNA isolated from cells above was quantified, and prepared in […] of each sample in 50 μl of nuclease-free water. This protocol may be run in microfuge tubes or in a 96-well plate. […] Genomic alignments were converted to transcriptome alignments based on reference transcript annotations from the Human GENCODE Gene Set release 24 (Harrow et al., Genome Res. […] Standard QC were applied (read integrity, mapping statistics, library complexity, fragment bias) to remove unsatisfactory samples. Differential gene expression was computed using the negative binomial model implemented by DESeq2 version 1.16.1 (Love et al., Genome Biol. (2014) 15(12):550). […] RNA-seq signals were also normalized by read depth and visualized using the UCSC browser. To identify small molecules that modulate target gene expression, primary human hepatocytes were prepared as a monoculture, and at least one small molecule compound was applied to the cells. RNA-seq was performed to determine the effects of the compounds on the expression of the target genes in hepatocytes. Fold change was calculated by dividing the level of expression in the cell system that had been perturbed by the level of expression in an unperturbed system.

[2] = system: LECT2; test: RNA-seq of LECT2 expression in compound-treated primary human hepatocytes
Protocol: (§2) Human hepatocytes were obtained from two donors from Massachusetts General Hospital, namely MGH54 and MGH63, and one donor from Lonza, namely HUM4111B. Cryopreserved hepatocytes were cultured in plating media for 16 hours, transferred to maintenance media for 4 hours. Cultured on serum-free media for 2 hours, then a compound was added. The hepatocytes were maintained on the serum-free media for 16 hours prior to gene expression analysis. Primary human hepatocytes were stored in the vapor phase of a liquid nitrogen freezer (about −130° C.).
(§3) Human hepatocytes cultured as described above were plated in 24-well format, adding 375,000 cells per well in a volume of 500 ul plating medium. Four hours before treatment, cells were washed with PBS and the medium was changed to either: fresh maintenance medium (complete) or modified maintenance medium.
(§4) Compound stocks were prepared at 1000× final concentration and added in a 2-step dilution to the medium to reduce risk of a compound precipitating out of solution when added to the cells, and to ensure reasonable pipetting volumes. One at a time, each compound was first diluted 10-fold in warm (about 37° C.) modified maintenance medium (initial dilution=ID), mixed by vortexing, and the ID was diluted 100-fold into the cell culture (e.g. 5.1 ul into 1 well of a 24-well plate containing 0.5 mL medium). The plate was mixed by carefully swirling and after all wells were treated and returned to the incubator overnight. If desired, separate plates/wells were treated with vehicle-only controls and/or positive controls. If using multi-well plates, controls were included on each plate. After about 18 hours, cells were harvested for further analysis, e.g., ChIP-seq, RNA-seq, ATAC-seq, etc.
(§5) This protocol is a modified version of the following protocols: MagMAX mirVana Total RNA Isolation Kit User Guide (Applied Biosystems #MAN0011131 Rev B.0), NEBNext Poly(A) mRNA Magnetic Isolation Module (E7490), and NEBNext Ultra Directional RNA Library Prep Kit for Illumina (E7420) (New England Biosystems #E74901).
(§6) The MagMAX mirVana kit instructions (the section titled “Isolate RNA from cells” on pages 14-17) were used for isolation of total RNA from cells in culture. Two hundred μl of Lysis Binding Mix was used per well of the multiwell plate containing adherent cells (usually a 24-well plate).
(§7) For mRNA isolation and library prep, the NEBNext Poly(A) mRNA Magnetic Isolation Module and Directional Prep kit was used. RNA isolated from cells above was quantified, and prepared in […] of each sample in 50 μl of nuclease-free water. This protocol may be run in microfuge tubes or in a 96-well plate.
Standard QC were applied (read integrity, mapping statistics, library complexity, fragment bias) to remove unsatisfactory samples. […] Log 2 fold change and significance values were computed using PME count data (with replicates explicitly modeled versus pan-experiment controls), median ratio normalized, using maximum likelihood estimation rather than maximum a posteriori, and disabling the use of Cook's distance cutoff when determining acceptable adjusted p-values. […] RNA-seq signals were also normalized by read depth and visualized using the UCSC browser.
To identify small molecules that modulate target gene expression, primary human hepatocytes were prepared as a monoculture, and at least one small molecule compound was applied to the cells.
RNA-seq was performed to determine the effects of the compounds on the expression of the target genes in hepatocytes. Fold change was calculated by dividing the level of expression in the cell system that had been perturbed by the level of expression in an unperturbed system. Changes in expression having a p-value ≤0.05 were considered significant.
Significance was defined as an FPKM ≥1, a log 2(fold change) ≥0.5, and a q-value of ≤0.05 for all targets except for CPOX.

[3] = system: JAG1; test: RNA-seq of JAG1 expression in compound-treated primary human hepatocytes; details: for JAG1 Fold Change (Log2): primary human hepatocytes; for Significant modulation of JAG1 (in words): summary of Table 6
Protocol: as §1

[4] = system: ANGPTL3; test: RNA-seq of ANGPTL3 expression in compound-treated primary human hepatocytes; details: additional compounds (Table 13), linear fold change
Outline: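 Cryopreserved primary human hepatocytes from three donors, plated at 375,000 cells/well, switched to complete or modified maintenance medium, then dosed with compound (stocks at 1000× final) for about 18 h. Poly(A) mRNA was sequenced directionally, mapped to GRCh38 with STAR, and gene-level abundance (counts, FPKM) estimated with RSEM against GENCODE 24.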

[5] = system: FN1; test: RNA-seq of FN1 expression in compound-treated primary human hepatocytes; details: perturbed vs unperturbed, significance FPKM ≥1, log 2(fold change) ≥0.5, q-value ≤0.05
Protocol: as §2, §3, §4, §5, §6, §7
All pass filter reads from each sample were mapped against the human genome (assembly GRCh38/GCA_000001405.15 “no alt” analysis set merged with hs38d1/GCA_000786075.2) using two pass mapping via STAR version 2.5.3a (alignment parameters alignIntronMin=20; alignIntronMax=1000000; outFilterMismatchNmax=999; outFilterMismatchNoverLmax=0.05; outFilterType=BySJout; outFilterMultimapNmax=20; alignSJoverhangMin=8; alignSJDBoverhangMin=1; alignMatesGapMax=1000000) (Dobin et al., Bioinformatics (2012) 29(1):15-21). Genomic alignments were converted to transcriptome alignments based on reference transcript annotations from the Human GENCODE Gene Set release 24 (Harrow et al., Genome Res. (2012) 22(9): 1760-1774). Using unique and multimapped transcriptomic alignments, gene-level abundance estimates were computed using RSEM version 1.3.0 (Li and Dewey, BMC Bioinformatics (2011) 12:323) in a strand-aware manner, and including confidence interval sampling calculations, to arrive at posterior mean estimates (PME) of abundances (counts and normalized FPKM—fragments per kilobase of exon per million mapped fragments) from the underlying Bayesian model. Standard QC were applied (read integrity, mapping statistics, library complexity, fragment bias) to remove unsatisfactory samples.

Compound | NOTCH2 Fold Change (Log2) [1] [Log2] | Significant modulation of NOTCH2 (in words) [1] | LECT2 Fold Change (Log2) [2] [Log2] | JAG1 Fold Change (Log2) [3] [Log2] | ANGPTL3-LINEAR FOLD CHANGE [4] | FN1 Fold Change (Log2) [5] [Log2] | Significant modulation of JAG1 (in words) [3]
740 Y-P | 0.66 | significantly modulate only NOTCH2 | −0.62 | 0 | – | – | –
CN1CCN(S(=O)(=O)c2ccc(-c3cnc(N)c(C(=O)Nc4cccnc4)n3)cc2)CC1 [AZD2858] | – | – | – | – | 0.3186 | −1.23 | –
CN(C)C/C=C/C(=O)Nc1cc2c(Nc3ccc(F)c(Cl)c3)ncnc2cc1O[C@H]1CCOC1 [Afatinib] | – | – | −0.75 | – | 0.3078 | −0.98 | –
CCOC(=O)C1=C(COCCN)NC(C)=C(C(=O)OC)C1c1ccccc1Cl (stereo not drawn) [Amlodipine Besylate] | – | – | −0.55 | – | 0.3035 | −1.22 | –
CCN1CCN(c2ccc(Nc3cc(N(C)C(=O)Nc4c(Cl)c(OC)cc(OC)c4Cl)ncn3)cc2)CC1 [BGJ398] | – | – | – | – | 0.3368 | −1.36 | –
C=C1/C(=C\C=C2/CCC[C@]3(C)[C@@H]([C@H](C)CCCC(C)(C)O)CC[C@@H]23)C[C@@H](O)C[C@@H]1O [Calcitriol] | – | – | −1.82 | – | 0.483 | −0.79 | –
COc1cc2c(Oc3ccc4[nH]c(C)cc4c3F)ncnc2cc1OCCCN1CCCC1 [Cediranib] | – | – | – | – | 0.4323 | −0.79 | –
c1ccc2c(-c3cnn4cc(-c5ccc(N6CCNCC6)cc5)cnc34)ccnc2c1 [LDN193189] | 0 | – | – | 2.07 | 0.4204 | −0.87 | significantly modulate only JAG1
NCC(=O)Nc1ccc(-n2nc(C(F)(F)F)cc2-c2ccc3c(ccc4ccccc43)c2)cc1 [OSU-03012] | – | – | −0.77 | – | 0.4965 | −1.03 | –
Cc1[nH]c(/C=C2\C(=O)Nc3ccc(S(=O)(=O)Cc4c(Cl)cccc4Cl)cc32)c(C)c1C(=O)N1CCC[C@@H]1CN1CCCC1 [PHA-665752] | – | – | – | – | – | −1.14 | –
Cc1c(C(=O)NN2CCCCC2)nn(-c2ccc(Cl)cc2Cl)c1-c1ccc(Cl)cc1 [Rimonabant] | – | – | −0.81 | – | 0.4538 | −0.76 | –
CNC1CCC(N(Cc2cccc(-c3ccncc3)c2)C(=O)c2sc3ccccc3c2Cl)CC1 (stereo not drawn) [Smoothened Agonist] | – | – | – | – | 0.3035 | −1.95 | –
COc1cc2nccc(Oc3ccc(NC(=O)Nc4cc(C)on4)c(Cl)c3)c2cc1OC [Tivozanib] | – | – | – | – | 0.4204 | −0.8 | –
CCOC(=O)N1c2ccc(C(F)(F)F)cc2[C@@H](N(Cc2cc(C(F)(F)F)cc(C(F)(F)F)c2)C(=O)OC)C[C@H]1CC [Torcetrapib] | 0.76 | significantly modulate both JAG1 and NOTCH2 | −0.86 | 0.68 | – | – | significantly modulate both JAG1 and NOTCH2
COc1nc(C)cnc1NS(=O)(=O)c1cccnc1-c1ccc(-c2nnco2)cc1 [Zibotentan] | 0.94 | significantly modulate only NOTCH2 | −0.83 | 0 | – | – | –
COc1nc(N)nc2c1ncn2[C@@H]1O[C@H](COP(=O)(N[C@@H](C)C(=O)OCC(C)(C)C)Oc2cccc3ccccc23)[C@@H](O)[C@@]1(C)O (stereo partly drawn) [bms-986094 (inx-189)] | – | – | – | – | – | −1.00 | –

Source: patent US20210161997A1, “TREATING DISEASES VIA TARGETED MODULATION OF GENE SIGNALING NETWORKS” (Camp4 Therapeutics Corporation, priority 2018, published 2021)
